Among the data in patent US12152038B2, “Vasopressin receptor antagonists and products and methods related thereto” (Neumora Therapeutics, Inc., priority 2017, dated 2024) are IC50 values, retold here.

A value given as a limit tells only on which side of the number the result lay.

Assay [1] has as its target T1, human Arginine Vasopressin Receptor V2 (AVPR2) (Homo sapiens, UniProt P30518).
T1 construct: host or cells: 1321N1 (cAMPZen V2 assay ready frozen cells)
The assay is described as follows: Vasopressin V2 receptor antagonist assay (TR-FRET cAMP, 1321N1 cells). The assay is classed as cell-based. Here is the method: The purpose of the assay was to determine the inhibitory effect of synthesized compounds on the Vasopressin receptor 2. The assay was performed in commercially available 1321N1 cells expressing the human Arginine Vasopressin Receptor V2 (AVPR2) (Perkin Elmer #ES-363-CF). Arginine Vasopressin (AVP) evokes an increase in intracellular cAMP in these cells which is measured in a TR-FRET assay using a Europium cAMP tracer and ULight labelled antibody reagents contained in a LANCE Ultra cAMP kit (Perkin Elmer #TRF0263). Increases in cAMP in the assay result in a reduction in TR-FRET as the cAMP produced by the stimulated cells competes with the Eu-cAMP tracer for binding sites on the ULight labelled antibody. Test compounds were assessed for their ability to affect the magnitude of the response to AVP, with antagonists showing a concentration-dependent decrease in the AVP-mediated reduction in TR-FRET signal.
cAMPZen V2 assay ready cells were thawed at 37° C. and resuspended directly from frozen in 9 ml growth medium consisting of DMEM supplemented with 10% v/v fetal bovine serum, 1× non-essential amino acids, and 1 mM sodium pyruvate. Cells were spun at 1000 rpm for 3 minutes and the supernatant was carefully removed and discarded. The pellet was resuspended in 5 ml stimulation buffer and the cell density determined using the Vi-Cell automated cell counter. The cell suspension was diluted to a 0.2×10^6/ml suspension ready for plating. To all wells of a white 384-well Optiplate (Perkin Elmer #6007299) 5 μL of cells in stimulation buffer were dispensed (1,000 cells per well). Stimulation buffer consisted of HBSS (+Ca/+Mg) supplemented with 5 mM HEPES, 0.1% BSA stabiliser and 0.5 mM IBMX.
At the start of each assay day the potency of AVP was assessed and an EC80 concentration determined for subsequent compound profiling. Assays were performed by first an addition of 2.5 μl of control or test compound at 4× final concentration in stimulation buffer followed by 2.5 μl of AVP at 4× final concentration in stimulation buffer. After a 1 hour reaction, detection reagents were added by first an addition of 5 μl EU-cAMP tracer, followed by 5 μl ULight-anti-cAMP both diluted as per the manufacturer's instructions. After a one hour incubation, plates were ready to be read (signals then remained stable for up to 24 hours). Changes in time resolved fluorescence were monitored with excitation via a laser (337 nm) measuring both 615 nm and 665 nm emission wavelengths. […] For compound profiling, test compounds were dispensed by the Labcyte Echo (10-point curve, 1:3 dilutions) in a target 0.1 μl volume then diluted 750-fold in stimulation buffer containing 3% DMSO prior to addition to the cells. At the end of the incubation period, 2.5 μl of AVP in stimulation buffer was added at the previously determined EC80 concentration.
In-plate controls for the assay included a Tolvaptan concentration-response curve as the reference V2 antagonist and an AVP concentration-response curve to confirm the reproducibility of the EC80 used for the compound challenge.

Assay [2] has as its target T2, human Oxytocin Receptor (hOTR) (Homo sapiens, UniProt P30559).
T2 construct: host or cells: CHEM-1 (ready-to-assay frozen cells)
T2 sequence (P30559 1-389): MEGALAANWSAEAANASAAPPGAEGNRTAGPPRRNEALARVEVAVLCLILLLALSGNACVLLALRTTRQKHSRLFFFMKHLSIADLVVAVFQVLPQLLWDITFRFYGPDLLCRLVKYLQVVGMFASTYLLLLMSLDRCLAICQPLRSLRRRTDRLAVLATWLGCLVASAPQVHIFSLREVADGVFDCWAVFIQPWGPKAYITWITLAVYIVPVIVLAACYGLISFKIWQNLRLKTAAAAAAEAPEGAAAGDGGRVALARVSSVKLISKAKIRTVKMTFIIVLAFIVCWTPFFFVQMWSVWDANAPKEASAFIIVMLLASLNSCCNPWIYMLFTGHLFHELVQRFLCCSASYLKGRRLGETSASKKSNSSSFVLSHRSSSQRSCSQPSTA
Kind of assay: Oxytocin receptor (OTR) antagonist assay (FLIPR calcium, CHEM-1-hOTR cells). The assay is classed as cell-based. Here is the method: This assay was performed in CHEM-1 cells expressing the human Oxytocin Receptor (hOTR) to determine the inhibitory effect of the compounds of the invention on the human Oxytocin receptor. Oxytocin evokes an increase in intracellular calcium in CHEM-1-hOTR cells which is measured in a fluorescence assay on the FLIPR^TETRA using calcium sensitive dyes. Test compounds were assessed for their ability to affect the magnitude of the response to oxytocin, with antagonists showing a concentration-dependent reduction in the oxytocin-mediated fluorescence.
CHEM-1-hOTR ready was used to assay frozen cells (Eurofins #HTS09ORTA) which are supplied with a proprietary Media Component.
Day 1 of the assay: Cells were thawed in a 37° C. water bath and diluted with the supplied Media Component to a final volume of 10 ml. The cell suspension was centrifuged at 1000 rpm for 3 min at room temperature and the supernatant was discarded. The cell pellet was resuspended in Media Component (10.5 ml) and the cells (25 μL) were dispensed into a poly-D-lysine coated black, clear bottomed, 384-well plate. The plates were incubated overnight at 37° C., 5% CO2.
Day 2: At the start of each assay day the potency of oxytocin was assessed and an EC80 concentration was determined for subsequent compound profiling. Assays were performed using a two-step addition protocol on the FLIPR^TETRA; first addition of 5 μl of control or test compound at 10× final in assay buffer with 15 min incubation at 37° C., 5% CO2 followed by 10 μl of oxytocin at 6× final concentration in assay buffer. Changes in fluorescence were monitored for 3 min after both additions on the FLIPR^TETRA using 470-495 nm excitation and 515-575 nm emission wavelengths. The assay buffer consisted of HBSS (+Ca/+Mg) supplemented with 20 mM HEPES, and for the preparation of the oxytocin agonist only, 0.1% w/v bovine serum albumin. The assay was initiated by the removal of growth media from the cells and replaced with 45 μl of Calcium-6 dye (Molecular Devices) prepared at 1× in assay buffer. Cells were loaded with dye for 60-90 min at 37° C., 5% CO2 before initiation of the FLIPR^TETRA protocol. […] For compound profiling, test compounds were first serially diluted in DMSO (10-point curve, 1:3 dilutions) then diluted 33.3-fold in assay buffer prior to addition to the dye loaded cells on the FLIPR^TETRA. At the end of the incubation period 10 μl of oxytocin in assay buffer containing 0.1% BSA was added at the previously determined EC80 concentration.
In-plate controls for the assay included a L-368,899 concentration-response curve as the reference OTR antagonist and an oxytocin concentration-response curve to confirm the reproducibility of the EC80 used for the compound challenge.

T1 sequence (P30518 whole entry): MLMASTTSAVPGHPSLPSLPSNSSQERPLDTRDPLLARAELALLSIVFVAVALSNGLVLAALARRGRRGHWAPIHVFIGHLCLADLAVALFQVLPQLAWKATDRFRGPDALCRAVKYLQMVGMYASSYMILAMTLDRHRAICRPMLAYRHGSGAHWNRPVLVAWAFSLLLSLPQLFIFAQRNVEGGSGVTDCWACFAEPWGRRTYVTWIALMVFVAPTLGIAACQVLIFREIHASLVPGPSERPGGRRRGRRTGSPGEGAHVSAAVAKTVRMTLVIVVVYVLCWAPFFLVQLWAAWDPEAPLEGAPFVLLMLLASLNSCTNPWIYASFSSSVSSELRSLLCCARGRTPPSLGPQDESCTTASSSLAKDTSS

For the molecule `CC1COc2cc(Cl)ccc2N1C(=O)N1CC2(C1)CN(c1cccnn1)C2` (single isomer, unassigned) [9-1-B], the IC50 in assay [1] was ≥ 1000 nM; in assay [2], 100 to 500 nM.
As to `CC1CN(C(=O)N2CC3(C2)CN(c2ccc(F)cn2)C3)c2ccc(Cl)cc2O1` (single isomer, unassigned) [9-3-A], the values for the IC50 in assay [1] and in assay [2] were ≥ 1000 nM and 500 to 1000 nM, respectively.
For `CC1CN(C(=O)N2CC3(C2)CN(c2ccc(F)cn2)C3)c2ccc(F)cc2O1` (single isomer, unassigned) [9-4-B], the IC50 in assay [1] and in assay [2] was ≥ 1000 nM each time.
Turning to `CC1COc2cc(F)ccc2N1C(=O)N1CC2(C1)CN(c1ccc(F)cn1)C2` (single isomer, unassigned) [12-1-B], the IC50 in assay [1] and in assay [2] was 100 to 500 nM in each case.
Consider `O=C(N1CC2(C1)CN(c1ccc(F)cn1)C2)N1CCC(O)c2cc(Cl)ccc21` (single isomer, unassigned) [13-1-A], for which the IC50 in assay [1] and in assay [2] was ≥ 1000 nM each time.
In the case of `O=C(N1CC2(C1)CN(c1ccccn1)C2)N1CCC(O)c2cc(Cl)ccc21` (single isomer, unassigned) [13-2-A], the results for the IC50 in assay [1] and in assay [2] were ≥ 1000 nM and 500 to 1000 nM, respectively.
For `O=C(N1CC2(C1)CN(c1ccccn1)C2)N1CCC(O)c2cc(Cl)ccc21` (single isomer, unassigned) [13-2-B] the same measures were ≥ 1000 nM and 500 to 1000 nM.
`O=C(N1CC2(C1)CN(c1cnccn1)C2)N1CCC(O)c2cc(Cl)ccc21` (single isomer, unassigned) [13-3-A]: the IC50 in assay [1] and in assay [2] was ≥ 1000 nM each time.
Turning to `CC1COc2cc(Cl)ccc2N1C(=O)N1CC2(C1)CN(c1noc3cccnc13)C2` (single isomer, unassigned) [18-3-B], the half-maximal inhibitory concentration (IC50) in assay [1] is 100 to 500 nM; in assay [2], ≥ 1000 nM.
Turning to `CC1COc2cc(F)c(F)cc2N1C(=O)N1CC2(C1)CN(c1ncccn1)C2` (single isomer, unassigned) [19-1-B], the half-maximal inhibitory concentration (IC50) in assay [1] and in assay [2] was ≥ 1000 nM throughout.
As for `CC1COc2cc(Cl)c(F)cc2N1C(=O)N1CC2(C1)CN(c1ncccn1)C2` (single isomer, unassigned) [19-2-B], the results for the IC50 in assay [1] and in assay [2] were 100 to 500 nM and 500 to 1000 nM, respectively.
Taken in the same sequence, the figures for `CC1COc2cc(Cl)c(F)cc2N1C(=O)N1CC2(C1)CN(c1cccnn1)C2` (single isomer, unassigned) [19-4-A] were ≥ 1000 nM and 100 to 500 nM.
Take `Cc1cncc(N2CC3(CN(C(=O)N4c5ccc(F)cc5OCC4C)C3)C2)n1` (single isomer, unassigned) [20-2-B]: the IC50 was < 100 nM in assay [1] and 100 to 500 nM in assay [2].
For the molecule `CC1COc2cc(F)ccc2N1C(=O)N1CC2(C1)CN(c1cc(C#N)ccn1)C2` (single isomer, unassigned) [20-3-B], the 50% inhibitory concentration (IC50) in assay [1] and in assay [2] was 100 to 500 nM each time.
On to `Cc1ccnc(N2CC3(CN(C(=O)N4c5ccc(F)cc5OCC4C)C3)C2)c1` (single isomer, unassigned) [20-4-B], for which the figures for the half-inhibitory concentration (IC50) in assay [1] and in assay [2] were < 100 nM and 500 to 1000 nM, respectively.
On to `Cc1cnc(N2CC3(CN(C(=O)N4c5ccc(Cl)cc5OCC4C)C3)C2)cn1` (single isomer, unassigned) [20-5-B], for which the IC50 was < 100 nM in assay [1] and 100 to 500 nM in assay [2].
With `CC1COc2cc(Cl)ccc2N1C(=O)N1CC2(C1)CN(c1cc(C#N)ccn1)C2` (single isomer, unassigned) [20-6-B], the IC50 in assay [1] and in assay [2] was < 100 nM throughout.
On to `Cc1nc(N2CC3(CN(C(=O)N4c5ccc(Cl)cc5OCC4C)C3)C2)ncc1F` (single isomer, unassigned) [20-7-B], for which the 50% inhibitory concentration (IC50) in assay [1] is < 100 nM; in assay [2], 100 to 500 nM.
Taken in the same sequence, the figures for `COc1ccnc(N2CC3(CN(C(=O)N4c5ccc(Cl)cc5OCC4C)C3)C2)c1` (single isomer, unassigned) [20-8-B] were < 100 nM and 100 to 500 nM.
`COc1ccnc(N2CC3(CN(C(=O)N4c5ccc(Cl)cc5OCC4C)C3)C2)n1` (single isomer, unassigned) [20-9-B]: the half-maximal inhibitory concentration (IC50) in assay [1] lay in the range of 100 to 500 nM; in assay [2], 500 to 1000 nM.
For `Cc1nccnc1N1CC2(CN(C(=O)N3c4ccc(Cl)cc4OCC3C)C2)C1` (single isomer, unassigned) [20-10-A] the same measures were 100 to 500 nM and 100 to 500 nM.
As for `Cc1ccnc(N2CC3(CN(C(=O)N4c5ccc(Cl)cc5OCC4C)C3)C2)n1` (single isomer, unassigned) [20-12-B], the IC50 in assay [1] and in assay [2] was < 100 nM each time.
`O=C(N1CC2(C1)CN(c1cccc(F)n1)C2)N1CCc2cc(Cl)ccc21` [1-78]: the IC50 in assay [1] and in assay [2] was ≥ 1000 nM each time.
As for `O=C(N1CC2(C1)CN(c1ccccn1)C2)N1CCOCc2cc(Cl)ccc21` [8-12], the IC50 is ≥ 1000 nM in assay [1] and 500 to 1000 nM in assay [2].
`O=C(N1CC2(C1)CN(c1cnccn1)C2)N1CCOCc2cc(Cl)ccc21` [8-13]: the IC50 in assay [1] and in assay [2] was ≥ 1000 nM in each case.
Turning to `CC1Cc2cc(Cl)ccc2N1C(=O)N1CC2(C1)CN(c1ccc(F)cn1)C2` (centres unmarked) [8-16], the 50% inhibitory concentration (IC50) in assay [1] and in assay [2] was < 100 nM each time.
For `CC1COc2cc(Cl)ccc2N1C(=O)N1CC2(C1)CN(c1cccnn1)C2` (centres unmarked) [9-1, (7-chloro-3-methyl-2,3-dihydro-4H-benzo[b][1,4]oxazin-4-yl)(6-(pyridazin-3-yl)-2,6-diazaspiro[3.3]heptan-2-yl)methanone], the half-inhibitory concentration (IC50) in assay [1] is ≥ 1000 nM; in assay [2], 100 to 500 nM.
Regarding `CC1CN(C(=O)N2CC3(C2)CN(c2ccc(F)cn2)C3)c2ccc(Cl)cc2O1` (centres unmarked) [9-3], the half-inhibitory concentration (IC50) in assay [1] was ≥ 1000 nM; in assay [2], 500 to 1000 nM.
